Measurements from patent publication US20250152556A1, “ETRASIMOD FOR USE IN TREATING S1P1 RECEPTOR-ASSOCIATED DISORDERS IN COMBINATION WITH HORMONE TREATMENT” (Arena Pharmaceuticals, Inc., priority 2022, published 2025).

Legend:
[1] = cited from earlier work
ovarian activity = experiment: Phase 1 study: PD markers of ovarian activity (FSH, LH, estradiol, progesterone, SHBG, TVUS/Hoogland score); type: in vivo, human; conditions: Study Drug 2 mg qd with OC
Excerpt: (§1) Secondary objectives of the study were: • To assess the concentrations of follicle stimulating hormone (FSH), luteinizing hormone (LH), estradiol, and progesterone during and after dosing with the monophasic OC alone and when co-administered with Study Drug in healthy premenopausal female subjects. • To evaluate transvaginal ultrasound (TVUS) and Hoogland scores on Days 1 and 11±1 in Period 1 and Period 2 in healthy premenopausal female subjects. • To evaluate sex hormone binding globulin (SHBG) concentrations on Days 1 and 21 in Period 1 and Period 2 in healthy premenopausal female subjects. • To evaluate the steady-state PK of Study Drug when co-administered with the monophasic OC in healthy premenopausal female subjects. • To assess complete blood count (CBC) including differential, absolute lymphocyte count lowering from baseline, and platelet count upon administration of monophasic OC alone and when co-administered with Study Drug in healthy premenopausal female subjects. • To evaluate the safety and tolerability of Study Drug when co-administered with the monophasic OC in healthy premenopausal female subjects.
On Day 1, baseline CBC, FSH, LH, estradiol, progesterone, TVUS, and SHBG were obtained, and then subjects received OC dosing. The TVUS were performed on Day −1 or Day 1. The OC PK was done on Days 21 to 22. […]

[2] = Phase 1 study: safety and tolerability (AEs, 12-lead ECG, Holter, laboratory, vital signs); type: in vivo, human
Description: Subjects were administered 2 mg Study Drug, specifically, the L-arginine salt of Compound 1, i.e., Compound 2, qd on Days 23 to 28. Subjects were fitted with a Holter monitor and 24-hour continuous electrocardiogram (ECG) recording was performed starting before the Study Drug dose on Day 23 of Period 1 until Day 24 of Period 1.
All subjects were co-administered Study Drug 2 mg qd with OC for 21 days (Days 29 to 49; test treatment), followed by a 7-day dose-free period (Days 50 to 56). On Days 49 to 50, subjects underwent assessments for PK of Study Drug and OC. Further PD assessments and safety evaluations were performed as described in the schedules of assessments and procedures. Subjects were fitted with a Holter monitor and 24-hour continuous ECG recording was performed starting before the Study Drug dose on Day 49 of Period 2 until Day 50 of Period 2.
Subject safety and tolerability were monitored during the study using standard measures, including adverse event (AE) monitoring, orthostatic vital signs, 12-lead ECGs, continuous ECG recordings (Holter), clinical laboratory evaluations, physical examinations, and concomitant medication usage.
• Evaluations of AEs, orthostatic vital signs, 12-lead ECGs, continuous ECG recording (Holter), clinical laboratory evaluations, physical examinations, concomitant medications

[3] = Phase 1 study: steady-state PK of Study Drug co-administered with OC; type: in vivo, human; conditions: Day 49, Period 2, Study Drug 2 mg qd + OC; compared with Study Drug given alone in previous studies
Excerpt: as §1
All subjects were co-administered Study Drug 2 mg qd with OC for 21 days (Days 29 to 49; test treatment), followed by a 7-day dose-free period (Days 50 to 56). On Days 49 to 50, subjects underwent assessments for PK of Study Drug and OC. […]

lymphocyte counts = experiment: Phase 1 study: lymphocyte counts (CBC); type: in vivo, human
Excerpt: as §1
Subjects were administered 2 mg Study Drug, specifically, the L-arginine salt of Compound 1, i.e., Compound 2, qd on Days 23 to 28. […]

[4] = parameters: species or system human; conditions: in vivo
Description: A phase 1, open-label, repeat-dose, two-way, single-sequence study was conducted to evaluate the effect of Compound 1, or a pharmaceutically acceptable salt, hydrate, or solvate thereof, (“Study Drug”) on the pharmacokinetics and pharmacodynamics of a monophasic oral contraceptive (OC) in healthy premenopausal female subjects.
The primary objective of the study was to evaluate the pharmacokinetics (PK) of a monophasic OC (30 μg ethinylestradiol [EE] and 150 μg levonorgestrel [LVG]) alone and when co-administered with repeated doses of Study Drug in healthy premenopausal female subjects.
All subjects received monophasic OC once daily (qd) for 21 days (Days 1 to 21; reference treatment) followed by a 7-day OC dose-free period (Days 22 to 28). […]
Blood samples for plasma PK evaluation of EE, LVG, and Study Drug were collected. The following PK parameters were determined for EE, LVG, and/or Study Drug and, if warranted, metabolites thereof. • Cmax,ss maximum plasma concentration at steady-state • Cmin,ss plasma concentration at 24-hours postdose at steady-state • Tmax,ss time to Cmax at steady-state • AUCtau,ss area under the plasma concentration-time curve (AUC) during the dosing interval (tau) at steady-state • CLSS/F Apparent plasma clearance of drug after extravascular administration at steady-state

[5] = after the first dose (Day 23), 2 mg
[6] = repeat dosing at steady-state (Day 49), 2 mg qd

## O=C(O)C[C@H]1CCc2c1[nH]c1ccc(OCc3ccc(C4CCCC4)c(C(F)(F)F)c3)cc21 [Compound 1, (R)-2-(7-(4-cyclopentyl-3-(trifluoromethyl)benzyloxy)-1,2,3,4-tetrahydrocyclopenta[b]indol-3-yl)acetic acid]
[1]; Phase 2, ulcerative colitis patients, 2 mg QD for 12 weeks
  endoscopic and symptomatic improvements versus placebo: clinically meaningful and statistically significant
[1]; approximately 281 adult subjects, various doses, Phase 1 single doses up to 5 mg, repeated up to 4 mg QD
  safety and tolerability in adult subjects: safe and well-tolerated
[1]; open-label extension study
  duration of sustained beneficial effects: up to 46 weeks

## N=C(N)NCCC[C@H](N)C(=O)O.O=C(O)C[C@H]1CCc2c1[nH]c1ccc(OCc3ccc(C4CCCC4)c(C(F)(F)F)c3)cc21 [Compound 2, 1:1 salt of (R)-2-(7-(4-cyclopentyl-3-(trifluoromethyl)benzyloxy)-1,2,3,4-tetrahydrocyclopenta[b]indol-3-yl)acetic acid with L-arginine]
Ovarian activity
  impact of Study Drug on PD performance of the OC (FSH, LH, estradiol, progesterone, SHBG, TVUS/Hoogland score): no apparent clinically relevant impact
[2]; Days 23 or 49
  clinically significant abnormalities of 12-lead ECG parameters including PR interval and QT interval: No subject had an ECG with clinically significant abnormalities
[2]; [5]
  HR lowering effects, continuous Holter ECG recording: typically mild
  HR lowering effects, safety 12-lead ECG: typically mild
[2]; conclusion, coadministration with OC
  safety or tolerability events of concern: No safety or tolerability events of concern
[2]; [6]
  HR lowering effects, continuous Holter ECG recording: less impacted
  HR lowering effects, safety 12-lead ECG: less impacted
[3]
  Study Drug steady-state plasma exposure measures (Cmax,ss, Cmin,ss, AUCtau,ss): generally consistent with previous study findings
Lymphocyte counts; Day 56, 7 days after discontinuation of study treatment
  mean lymphocyte counts relative to mean baseline (Day 23) after discontinuation: 94%
Lymphocyte counts; Period 2, Study Drug 2 mg qd + OC, Day 49
  mean lymphocyte count reduction from mean baseline (Day 23): −56.7%

## C#C[C@]1(O)CC[C@H]2[C@@H]3CCc4cc(O)ccc4[C@H]3CC[C@@]21C [Ethinylestradiol (EE), ethinylestradiol]
[4]
  change in peak (Cmax,ss) and total (AUCtau,ss) exposure measures when OC coadministered with ETR vs OC alone: minor-to-moderate increases

## C#C[C@]1(O)CC[C@H]2[C@@H]3CCC4=CC(=O)CC[C@@H]4[C@H]3CC[C@@]21CC [Levonorgestrel (LVG), levonorgestrel]
[4]
  change in peak (Cmax,ss) and total (AUCtau,ss) exposure measures when OC coadministered with ETR vs OC alone: minor-to-moderate increases
